From article PMC6114901, “An automated screening method for detecting compounds with goitrogenic activity using transgenic zebrafish embryos” (PLoS ONE, 2018)
pEC50: −log10 of the molar value. Read-outs that look alike come from different tables or passages of the source.

Key:
zebrafish embryos = assay: in vivo; conditions: for LC10: unit not given, in µM; for Slope: mortality concentration-response curve
Method: Fish embryo acute toxicity tests were performed similar as described previously, using 10 or 25 embryos per concentration and replicate exposed in crystallization dishes from 48 to 120 hpf. No exchange of exposure media was performed. Lethality was identified by coagulation, missing heartbeat, a non–detached tail and/or missing of somites. Raw data for mortality and phenotypic assessment are provided as S1 Table. Concentration-response curves for mortality are shown in S2 Fig.

[1] = test system: thyroid hormone levels (T4); conditions: ref Thienpont et al. [13], cited from earlier work
[2] = 72 hpf, 15000 µmol/L, replicate 2, 10 embryos
[3] = 72 hpf, 30000 µmol/L, replicate 2, 10 embryos
[4] = 72 hpf, 50000 µmol/L, replicate 1, 10 embryos
[5] = 72 hpf, 100000 µmol/L, replicate 1, 10 embryos
[6] = 96 hpf, 20000 µmol/L, replicate 2, 10 embryos
[7] = 96 hpf, 25000 µmol/L, replicate 2, 10 embryos
[8] = 96 hpf, 30000 µmol/L, replicate 2, 10 embryos
[9] = 96 hpf, 50000 µmol/L, replicate 1, 10 embryos
[10] = 96 hpf, 50000 µmol/L, replicate 2, 10 embryos
[11] = 96 hpf, 100000 µmol/L, replicate 1, 10 embryos
[12] = 120 hpf, 10000 µmol/L, replicate 1, 10 embryos
[13] = 120 hpf, 15000 µmol/L, replicate 2, 10 embryos
[14] = 120 hpf, 20000 µmol/L, replicate 2, 10 embryos
[15] = 120 hpf, 25000 µmol/L, replicate 1, 10 embryos
[16] = 120 hpf, 25000 µmol/L, replicate 2, 10 embryos
[17] = 120 hpf, 30000 µmol/L, replicate 2, 10 embryos
[18] = 120 hpf, 40000 µmol/L, replicate 2, 10 embryos
[19] = 120 hpf, 50000 µmol/L, replicate 1, 10 embryos
[20] = 120 hpf, 50000 µmol/L, replicate 2, 10 embryos
[21] = 120 hpf, 100000 µmol/L, replicate 1, 10 embryos

**Q.** With `[K+].[O-][Cl+3]([O-])([O-])[O-]` [Potassium perchlorate, potassium perchlorate] as the compound, how does the “No Surviving” value (zebrafish embryos; 72 hpf, 1000 µmol/L, replicate 1, 10 embryos) read?
**A.** 10

**Q.** What about the “No Surviving” value (zebrafish embryos; 72 hpf, 5000 µmol/L, replicate 1, 10 embryos) of the same compound?
**A.** 10

**Q.** And the “No Surviving” value (zebrafish embryos; 72 hpf, 10000 µmol/L, replicate 1, 10 embryos)?
**A.** 10

**Q.** What about the “No Surviving” value (zebrafish embryos; [2]) of the same compound?
**A.** 10

**Q.** What about the Sublethal effects mtail (zebrafish embryos; [2]) of the same compound?
**A.** 1

**Q.** What about the “No Surviving” value (zebrafish embryos; 72 hpf, 20000 µmol/L, replicate 2, 10 embryos) of the same compound?
**A.** 10

**Q.** What about the “No Surviving” value (zebrafish embryos; 72 hpf, 25000 µmol/L, replicate 1, 10 embryos) of the same compound?
**A.** 10

**Q.** And the “No Surviving” value (zebrafish embryos; 72 hpf, 25000 µmol/L, replicate 2, 10 embryos)?
**A.** 10

**Q.** What about the Lethal effects k/f (zebrafish embryos; [3]) of the same compound?
**A.** 1

**Q.** And the “No Surviving” value (zebrafish embryos; [3])?
**A.** 9

**Q.** What about the “No Surviving” value (zebrafish embryos; 72 hpf, 40000 µmol/L, replicate 2, 10 embryos) of the same compound?
**A.** 10

**Q.** What about the Lethal effects k/f (zebrafish embryos; [4]) of the same compound?
**A.** 3

**Q.** And the “No Surviving” value (zebrafish embryos; [4])?
**A.** 7

**Q.** What about the Sublethal effects tip (zebrafish embryos; [4]) of the same compound?
**A.** 1

**Q.** What about the “No Surviving” value (zebrafish embryos; 72 hpf, 50000 µmol/L, replicate 2, 10 embryos) of the same compound?
**A.** 10

**Q.** What about the Lethal effects nohb (zebrafish embryos; [5]) of the same compound?
**A.** 1

**Q.** And the “No Surviving” value (zebrafish embryos; [5])?
**A.** 9

**Q.** What about the “Sublethal effects Total Sublethal” value (zebrafish embryos; [5]) of the same compound?
**A.** 8

**Q.** What about the Sublethal effects beh (zebrafish embryos; [5]) of the same compound?
**A.** 5

**Q.** And the Sublethal effects nomov (zebrafish embryos; [5])?
**A.** 3

**Q.** And the “No Surviving” value (zebrafish embryos; 96 hpf, 1000 µmol/L, replicate 1, 10 embryos)?
**A.** 10

**Q.** What about the “No Surviving” value (zebrafish embryos; 96 hpf, 5000 µmol/L, replicate 1, 10 embryos) of the same compound?
**A.** 10

**Q.** And the “No Surviving” value (zebrafish embryos; 96 hpf, 10000 µmol/L, replicate 1, 10 embryos)?
**A.** 10

**Q.** And the “No Surviving” value (zebrafish embryos; 96 hpf, 15000 µmol/L, replicate 2, 10 embryos)?
**A.** 10

**Q.** What about the Lethal effects nohb (zebrafish embryos; [6]) of the same compound?
**A.** 3

**Q.** What about the “No Surviving” value (zebrafish embryos; [6]) of the same compound?
**A.** 7

**Q.** And the “Sublethal effects Total Sublethal” value (zebrafish embryos; [6])?
**A.** 1

**Q.** And the Sublethal effects mtail (zebrafish embryos; [6])?
**A.** 1

**Q.** And the “No Surviving” value (zebrafish embryos; 96 hpf, 25000 µmol/L, replicate 1, 10 embryos)?
**A.** 10

**Q.** And the Lethal effects nohb (zebrafish embryos; [7])?
**A.** 6

**Q.** What about the “No Surviving” value (zebrafish embryos; [7]) of the same compound?
**A.** 4

**Q.** What about the “Sublethal effects Total Sublethal” value (zebrafish embryos; [7]) of the same compound?
**A.** 4

**Q.** What about the Sublethal effects nobc (zebrafish embryos; [7]) of the same compound?
**A.** 4

**Q.** What about the Lethal effects k/f (zebrafish embryos; [8]) of the same compound?
**A.** 1

**Q.** What about the Lethal effects nohb (zebrafish embryos; [8]) of the same compound?
**A.** 9

**Q.** And the “No Surviving” value (zebrafish embryos; 96 hpf, 40000 µmol/L, replicate 2, 10 embryos)?
**A.** 10

**Q.** What about the Lethal effects k/f (zebrafish embryos; [9]) of the same compound?
**A.** 1

**Q.** What about the Lethal effects nohb (zebrafish embryos; [9]) of the same compound?
**A.** 4

**Q.** And the “No Surviving” value (zebrafish embryos; [9])?
**A.** 5

**Q.** And the “Sublethal effects Total Sublethal” value (zebrafish embryos; [9])?
**A.** 3

**Q.** What about the Sublethal effects nobc (zebrafish embryos; [9]) of the same compound?
**A.** 2

**Q.** What about the Sublethal effects nomov (zebrafish embryos; [9]) of the same compound?
**A.** 1

**Q.** What about the Sublethal effects tip (zebrafish embryos; [9]) of the same compound?
**A.** 1

**Q.** And the Lethal effects k/f (zebrafish embryos; [10])?
**A.** 1

**Q.** What about the “No Surviving” value (zebrafish embryos; [10]) of the same compound?
**A.** 9

**Q.** And the Lethal effects nohb (zebrafish embryos; [11])?
**A.** 10

**Q.** And the “No Surviving” value (zebrafish embryos; [11])?
**A.** 0

**Q.** And the Sublethal effects nobc (zebrafish embryos; [11])?
**A.** 10

**Q.** And the “No Surviving” value (zebrafish embryos; 120 hpf, 1000 µmol/L, replicate 1, 10 embryos)?
**A.** 10

**Q.** What about the “No Surviving” value (zebrafish embryos; 120 hpf, 5000 µmol/L, replicate 1, 10 embryos) of the same compound?
**A.** 10

**Q.** What about the Lethal effects nohb (zebrafish embryos; [12]) of the same compound?
**A.** 1

**Q.** And the “No Surviving” value (zebrafish embryos; [12])?
**A.** 9

**Q.** And the “Sublethal effects EdY / EdP” value (zebrafish embryos; [12])?
**A.** 1

**Q.** What about the “Sublethal effects Total Sublethal” value (zebrafish embryos; [12]) of the same compound?
**A.** 1

**Q.** And the Lethal effects k/f (zebrafish embryos; [13])?
**A.** 1

**Q.** What about the Lethal effects nohb (zebrafish embryos; [13]) of the same compound?
**A.** 5

**Q.** What about the “No Surviving” value (zebrafish embryos; [13]) of the same compound?
**A.** 4

**Q.** And the “Sublethal effects Total Sublethal” value (zebrafish embryos; [13])?
**A.** 5

**Q.** What about the Sublethal effects mtail (zebrafish embryos; [13]) of the same compound?
**A.** 5

**Q.** What about the Lethal effects k/f (zebrafish embryos; [14]) of the same compound?
**A.** 4

**Q.** And the “No Surviving” value (zebrafish embryos; [14])?
**A.** 6

**Q.** What about the “Sublethal effects Total Sublethal” value (zebrafish embryos; [14]) of the same compound?
**A.** 6

**Q.** What about the Sublethal effects nobc (zebrafish embryos; [14]) of the same compound?
**A.** 6

**Q.** What about the Lethal effects nohb (zebrafish embryos; [15]) of the same compound?
**A.** 9

**Q.** And the “No Surviving” value (zebrafish embryos; [15])?
**A.** 1

**Q.** What about the “Sublethal effects Total Sublethal” value (zebrafish embryos; [15]) of the same compound?
**A.** 1

**Q.** What about the Sublethal effects nobc (zebrafish embryos; [15]) of the same compound?
**A.** 1

**Q.** And the Lethal effects k/f (zebrafish embryos; [16])?
**A.** 4

**Q.** What about the Lethal effects nohb (zebrafish embryos; [16]) of the same compound?
**A.** 2

**Q.** And the “No Surviving” value (zebrafish embryos; [16])?
**A.** 4

**Q.** What about the “Sublethal effects Total Sublethal” value (zebrafish embryos; [16]) of the same compound?
**A.** 4

**Q.** And the Sublethal effects nobc (zebrafish embryos; [16])?
**A.** 4

**Q.** And the Lethal effects k/f (zebrafish embryos; [17])?
**A.** 1

**Q.** And the “No Surviving” value (zebrafish embryos; [17])?
**A.** 9

**Q.** What about the “Sublethal effects Total Sublethal” value (zebrafish embryos; [17]) of the same compound?
**A.** 9

**Q.** And the Sublethal effects nobc (zebrafish embryos; [17])?
**A.** 9

**Q.** And the Lethal effects k/f (zebrafish embryos; [18])?
**A.** 1

**Q.** And the Lethal effects nohb (zebrafish embryos; [18])?
**A.** 2

**Q.** And the “No Surviving” value (zebrafish embryos; [18])?
**A.** 7

**Q.** And the “Sublethal effects Total Sublethal” value (zebrafish embryos; [18])?
**A.** 7

**Q.** And the Sublethal effects nobc (zebrafish embryos; [18])?
**A.** 7

**Q.** What about the Lethal effects nohb (zebrafish embryos; [19]) of the same compound?
**A.** 4

**Q.** And the “No Surviving” value (zebrafish embryos; [19])?
**A.** 6

**Q.** What about the “Sublethal effects Total Sublethal” value (zebrafish embryos; [19]) of the same compound?
**A.** 6

**Q.** What about the Sublethal effects nobc (zebrafish embryos; [19]) of the same compound?
**A.** 6

**Q.** What about the Lethal effects k/f (zebrafish embryos; [20]) of the same compound?
**A.** 4

**Q.** And the Lethal effects nohb (zebrafish embryos; [20])?
**A.** 1

**Q.** And the “No Surviving” value (zebrafish embryos; [20])?
**A.** 5

**Q.** And the “Sublethal effects Total Sublethal” value (zebrafish embryos; [20])?
**A.** 5

**Q.** What about the Sublethal effects nobc (zebrafish embryos; [20]) of the same compound?
**A.** 5

**Q.** What about the Lethal effects nohb (zebrafish embryos; [21]) of the same compound?
**A.** 10

**Q.** And the “No Surviving” value (zebrafish embryos; [21])?
**A.** 0

**Q.** And the LC50 (zebrafish embryos; mortality after 48 h of exposure, S2 Fig, unit inferred)?
**A.** 50.3 mM

**Q.** And the LC10 (zebrafish embryos; mortality after 48 h of exposure, S2 Fig)?
**A.** 10862

**Q.** What about the LC50 (zebrafish embryos; mortality after 72 h of exposure, S2 Fig, unit inferred) of the same compound?
**A.** 33.1 mM

**Q.** What about the LC10 (zebrafish embryos; mortality after 72 h of exposure, S2 Fig) of the same compound?
**A.** 3232

**Q.** What about the Slope (zebrafish embryos; 48 h of exposure) of the same compound?
**A.** 1.43

**Q.** What about the Slope (zebrafish embryos; 72 h of exposure) of the same compound?
**A.** 0.944

**Q.** What about the LC50 (zebrafish embryos; read-out: LC50 (48–120 hpf), mortality, embryos exposed 48–120 hpf) of the same compound?
**A.** 33.1 mM

**Q.** And the pEC50 ([1]; read-out: EC50 T4 reduction, reduction of thyroid hormone levels (immunostaining))?
**A.** 5.60

**Q.** And the “TDI (T4)” value ([1]; thyroid disruption index based on T4 reduction)?
**A.** 6030
